Series [1] relates to resistant strain of green rice leafhopper (Nephotetix cincticeps). As to the kind of experiment: Test Example 3: rice seedling dip test, resistant green rice leafhopper. Format: in vivo. The settings on record: Nephotettix cincticeps, 24 h, adults of resistant strain, after one day. The protocol:
The emulsifiable concentrates of the following present compounds and control compounds obtained according to Formulation example 2 were each diluted with water to a prescribed concentration, and rice seedlings (about 12 cm in length) were dipped for 1 minute in the resulting aqueous dilute solutions. After air-drying, the seedlings were placed in test tube, and 10 adults of a resistant strain of green rice leafhopper (Nephotetix cincticeps) were liberated in the tube. After one day, the dead and alive of the adults were examined to obtain LC50 (50% lethal concentration)(two replications).

Series [2] has as its system brown rice planthopper (Nila^parvata luqens). As to the kind of experiment: Test Example 4: rice seedling dip test, brown rice planthopper. Format: in vivo. The settings on record: 24 h, read-out: LC50 value (ppm). The protocol: The emulsifiable concentrates of the-following present compounds and control compounds obtained according to Formulation example 2 were each diluted with water to a prescribed concentration, and the rice seedlings (about 12 cm in length) were dipped for 1 minute in the resulting aqueous dilute solutions. After air-drying, the seedlings were placed in a test tube, and 10 adults of brown rice planthopper (Nila^parvata luqens) were liberated in the tube. After one day, the dead and alive of the adults were examined to obtain LC50 value (50% lethal concentration)(two replications).

A short description of series [3]: Test Example 9: fish toxicity test. The following applies: water; young carp; forty-eight hours; 25 ± 1°C; Probit method; read-out: LC50 value (ppm). Format: in vivo, Cyprinida carpio. As to the method: Twenty liters of each of the aqueous solutions containing the prescribed concentrations of the present compounds and comparative control one, and 10 young carp were liberated thereto. Forty-eight hours after, the dead and alive carp were examined to obtain LC50 value, (50% lethal concentration) according to Probit method. All the tests were carried out in thermostatic aquaria whose temperatures were kept at 25 ± 1°C.
Tested fish: young Japanese carp (Cyprinida carpio) Average body length ± S.D.: 2.94 ± 0.19 cm. Average.body weight ± S.D.: 0.65 ± 0.13 g.

In series [4] the test system is carmine spider mite (Tetranychus cinnabarinus). As to the kind of experiment: Test Example 8: carmine spider mite on potted kidney bean, degree of damage. Format: in vivo. Further details: key: -: No damage is observed.; +: Slight damage is observed.; ++: The same damage as in the untreated plot is observed. The settings on record: 500 ppm spray 10 ml/pot plus 2 ml soil treatment; after 8 days. As to the method:
The female adults of carmine spider mite (Tetranychus cinnabarinus) were put at a rate of 10 adults/leaf on the leaves of potted kidney bean (at the primordial leaf stage) which had elapsed 7 days after sowing, and placed in a constant-temperature room kept at 25°C. After 6 days, the 200-fold aqueous dilute solutions (corresponding to 500 ppm), prepared from the emulsifiable concentrates of the following present compounds and control compounds prepared according to Formulation example 2, were each sprayed at a rate of 10 ml/pot on a turn table. At the same time, the soil in the pot was treated with 2 ml of each aqueous solution. After 8 days, the degree of damage of the plant by the mite was examined.
Criteria of the effect: • - : No damage is observed. • + : Slight damage is observed. • ++: The same damage as in the untreated plot is observed.

The subject of series [5] is tobacco cutworms (Spodoptera litura). Nature of the series: Test Example 2: tobacco cutworm larvae on treated artificial feed. Format: in vivo. The settings on record: Spodoptera litura, 144 h. The text has this: The emulsifiable concentrates of the following present compounds obtained according to Formulation example 2 were each diluted with water to obtain respective 667 times dilution aqueous solutions (corresponding to 150 ppm) containing said compounds, respectively. Two ml of thus diluted solutions were impregnated into the artificial feeds (13 g) for tobacco cutworms (Spodoptera litura) and thus prepared feeds were placed in polyethylene cups of 11 cm in diameter, respectively. Ten of the 4th instar larvae were liberated thereon.
Six days after, the dead and alive of the larvae were examined to calculate the mortality (two replications).

Series [6] has as its system rice stem borer (Chilo suppressalis). Nature of the series: Test Example 5: rice stem borer larvae on treated artificial feed. Format: in vivo. The following applies: read-out: LC50 value (ppm). An excerpt: The emulsifiable concentrates of the following present compounds and control compounds obtained according to Formulation example 2 were each diluted with water to a prescribed concentration, and one ml each of thus prepared solutions was impregnated into the artificial feeds for rice stem borer (Chilo suppressalis) which had been previously prepared in polyethylene cups of 5.5 cm in diameter, respectively. Ten of the larvae of the 10 days old were liberated thereon. The dead and alive larvae were examined to obtain LC50 value (50% lethal concentration) (two replications).

Series [7] deals with brown rice planthoppers (Nila^parvata luqens). Nature of the series: Test Example 7: spray on potted rice plants, brown rice planthopper, residual effect. Format: in vivo. The settings on record: 20 h. As to the method: The emulsifiable concentrates of the following compounds and control compounds obtained according to Formulation example 2 were each diluted with water one thousand times (corresponding to 100 ppm) and each of thus prepared solutions was sprayed at the rate of 20 ml/2 pots to the rice plant seedlings planted in Wagner pots having a surface area of one ten thousandth are. After air-drying, the treated plants were covered with the iron wire cages, and about 15 adults of brown rice planthoppers (Nila^parvata luqens) were liberated thereto. Further, about 15 adults thereof were also liberated thereto 4 days after the application to examine the residual effects. Twenty hours after each liberation, the dead and alive adults were examined to calculate the mortality.

The subject of series [8] is common mosquito (Culex pipiens pallens). Nature of the series: Test Example 1: common mosquito larvae in diluted emulsifiable concentrate, mortality and emergence inhibition. Format: in vivo. The following applies: Culex pipiens; for mortality at 3.5 ppm: 24 h; for pest or weed control at 3.5 ppm: counted when all pupae of no treatment group had emerged, read-out: Inhibitory ratio of emergence. As to the method: The emulsifiable concentrates of the following present compounds obtained according to Formulation example 2 were each diluted with water so as to obtain respective aqueous solutions containing 3.5 ppm of said compounds, respectively. One hundred ml of thus diluted aqueous solutions were poured into respective polyethylene cups of 180 ml volume, and 20 of the last instar larvae of common mosquito (Culex pipiens pallens) were liberated thereto. After one day, the dead or alive of the larvae were examined.
Thereafter, the feed was added to respective cups and the number of emerged pupae of the respective cups was counted when all the pupae of no treatment group had emerged to calculate the inhibitory ratios of the emergence.
The mortality and the inhibitory ratio of the emergence are shown according to the following three criteria: • mortality: A; 90% or more, • B; less than 90% to 10%, • C; less than 10%. • inhibitory: A; 90% or more, ratio of • emergence B; less than 90% to 80% • C; less than 80%.

In series [9] the test system is houseflies (Musca domestica) of WHO strains. As to the kind of experiment: Test Example 6: housefly filter paper and sucrose bait test. Format: in vivo. The settings on record: 0.7 ml on filter paper with sucrose bait, adult females, after 48 hours, read-out: LC50 value (ppm). As to the method:
On the bottom of a polyethylene cup of 5.5 cm- in diameter was placed a piece of filter paper of the same size as the bottom, and 0.7 ml of a test solution, prepared by diluting the emulsifiable concentrates of the following present compounds and control compounds prepared according to Formulation example 2 to a prescribed concentration with water, was added dropwise to the filter paper. Thirty milligrams of sucrose were uniformly placed on the filter paper as bait. Thereafter, 10 adult female houseflies (Musca domestica) of WHO strains were liberated in the cup, which was then covered with a lid. After 48 hours, the dead and alive were examined to obtain LC50 value (50% lethal concentration) (two replications).

[10] abbreviates: read-out: LC50 value (ppm), rice seedlings dipped 1 minute.

SMILES strings stand for the structures. Converted amounts (≈) assume the structure as drawn. Read-outs that look alike come from different tables or passages of the source.

As usually defined, the LC50 is the concentration that kills 50% of the test population. As a reminder, the mortality is the share of the test organisms that died. For `C#CC(C)(CCCc1cccc(Oc2ccccc2)c1)c1ccc(OCC)cc1` (stereo not shown) [(3), 3-(4-ethoxyphenyl)-3-methyl-6-(3-phenoxyphenyl)-1-hexyne], the median lethal concentration (LC50) turned out to be 18 µg/mL (≈ 46.8 µM) in series [1] (setting [10]), 34 µg/mL (≈ 88.4 µM) in series [2] and 3.6 µg/mL (≈ 9.36 µM) in series [6]. Also, the LC50 at 48 h in series [3] is greater than 10 µg/mL. Also, the Degree of damage entry in series [4] is “-”. In [5], this molecule showed a mortality at 150 ppm of 100%. The mortality at 100 ppm came out at 95% in series [7] (read-out: Mortality (%) liberated 4 days after application) and 100% in series [7] (read-out: Mortality (%) liberated just after air-drying). Besides, the mortality at 3.5 ppm in series [8] was greater than 90%. Also, the pest or weed control at 3.5 ppm in series [8] (3.5 ppm) was greater than 90%.

As to `C#CC(C)(CCCc1ccc(F)c(Oc2ccccc2)c1)c1ccc(OCC)cc1` (stereo not shown) [(4)], the LC50 stood at 10 µg/mL (≈ 24.8 µM) in [1] (rice seedlings dipped 1 minute, read-out: LC50 value (ppm)); 24 µg/mL (≈ 59.6 µM) in [2] (rice seedlings dipped 1 minute, adults, after one day); 1.9 µg/mL (≈ 4.72 µM) in series [6] (1 ml solution in artificial feed, larvae 10 days old); 18 µg/mL (≈ 44.7 µM) in series [9]. Further, the LC50 at 48 h in series [3] is greater than 10 µg/mL. Moreover, the mortality at 150 ppm in series [5] (150 ppm solution, 2 ml in 13 g artificial feed, 4th instar larvae, six days after, read-out: Mortality (%)) is 100%. Moreover, the mortality at 100 ppm in series [7] (100 ppm spray, 20 ml/2 pots, residual effect, twenty hours after liberation, read-out: Mortality (%) liberated 4 days after application) stood at 100%; in [7] (100 ppm spray, 20 ml/2 pots, twenty hours after liberation, read-out: Mortality (%) liberated just after air-drying) it was 100%. For the same molecule, the mortality at 3.5 ppm in series [8] (3.5 ppm, 20 last instar larvae, after one day, read-out: Mortality) was greater than 90%. Besides, the pest or weed control at 3.5 ppm in series [8] (3.5 ppm) was greater than 90%.

As to `CCOC(=O)CC(SP(=S)(OC)OC)C(=O)OCC` (stereo not shown) [(D), Malathion, reference compound], in series [1] (setting [10]), the LC50 was roughly 500 µg/mL (≈ 1510 µM). The LC50 at 48 h in series [3] amounted to 4.5 µg/mL (≈ 13.6 µM).

For the origin of these results see patent EP0193189A1, “Novel compound, its production and insecticidal and acaricidal composition containing it as an active ingredient” (SUMITOMO CHEMICAL COMPANY, LIMITED, priority 1985, dated 1986).
